# Reference: patent publication US20050026223A1, “Method and compositions for increasing bone mass” (The Board of Trustees of the University of Arkansas, priority 1999, published 2005)
# Values joined by “and” are separate entries in the source; they are usually repeats but may differ in a detail not shown here. Identical values can stand only once.
# Assays:
# MLO-Y4 osteocytic cells = assay: Etoposide-induced apoptosis of MLO-Y4 osteocytic cells (trypan blue uptake); type: cell-based, murine
# Method: Cells were pretreated with the indicated concentrations of the compounds for 1 hour before the addition of the pro-apoptotic agent etoposide. Apoptosis was determined after 6 hour by trypan blue uptake as described in FIG. 3. * indicates p<0.05 versus etoposide alone, by ANOVA (Student-Newman-Keuls method).
# MLO-Y4 cells were pretreated for 1 hour with the pure receptor antagonist ICI182,780 (10^−7 M) before the addition of the test agents (10^−8 M). Apoptosis was induced and quantified as described in FIG. 3. * indicates p<0.05 versus etoposide alone, by ANOVA (Student-Newman-Keuls method).
# In this experiment, MLO-Y4 cells were pretreated with the indicated concentrations of the various compounds for 1 h before the addition of the pro-apoptotic agent, etoposide. Apoptosis was determined after 6 h by trypan blue uptake as described in FIG. 3.
# human ERα = molecular target: T1, human ERα (Homo sapiens, UniProt P03372); assay: Estrogen response element luciferase reporter in 293 cells overexpressing hERα; type: cell-based; settings: 3 copies ERE-luciferase
# T1 construct: expressed in transfected cells; host or cells: 293 (human embryonic kidney) cells
# T1 sequence (P03372 1-595): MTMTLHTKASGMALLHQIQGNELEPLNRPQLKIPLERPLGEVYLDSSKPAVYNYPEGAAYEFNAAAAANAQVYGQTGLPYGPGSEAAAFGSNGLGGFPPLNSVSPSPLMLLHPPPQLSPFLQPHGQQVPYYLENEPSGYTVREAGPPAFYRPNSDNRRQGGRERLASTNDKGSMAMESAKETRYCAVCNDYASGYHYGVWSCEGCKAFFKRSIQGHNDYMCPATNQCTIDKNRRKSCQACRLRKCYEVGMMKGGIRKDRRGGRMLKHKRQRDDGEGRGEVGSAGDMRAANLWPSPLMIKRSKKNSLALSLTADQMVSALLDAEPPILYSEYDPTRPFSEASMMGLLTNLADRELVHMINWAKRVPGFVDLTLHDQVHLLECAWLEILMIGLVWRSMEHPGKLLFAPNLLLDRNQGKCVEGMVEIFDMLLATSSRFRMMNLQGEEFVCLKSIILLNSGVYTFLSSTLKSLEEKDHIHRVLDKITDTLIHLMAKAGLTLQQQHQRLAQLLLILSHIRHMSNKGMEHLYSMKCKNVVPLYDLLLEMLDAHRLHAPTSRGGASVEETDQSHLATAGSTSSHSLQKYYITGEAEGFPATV
# From the text: The human ERα was overexpressed in 293 cells lacking ERα along with a reporter construct containing 3 copies of an estrogen response element driving the luciferase gene. Light units were counted and normalized to coexpressed b-galactosidase activity to control for differences in transfection efficiency. Results represent percent stimulation compared to ERα transfected cells, but not treated with the two agents. Each bar represents mean of duplicate experiments +/−SEM. *p<0.001 vs. cells not exposed to the sterols.
# In this experiment, hERα was overexpressed in 293 cells (which lack constitutive ERα) along with a reporter construct containing 3 copies of an estrogen response element driving the luciferase gene. Light units were counted and normalized to coexpressed β-galactosidase activity to control for differences in transfection efficiency.
# [1] = BMD by dual-energy x-ray absorptiometry in intact or ovariectomized mice, 28 days; type: in vivo; parameters: global 1 (BMD) / hindquart 1 (BMD) / spine 1 (BMD) / global 2 (BMD) / hindquart 2 (BMD) / spine 2 (BMD) / global 1 (BMD), mean / hindquart 1 (BMD), mean / spine 1 (BMD), mean / global 2 (BMD), mean / hindquart 2 (BMD), mean / spine 2 (BMD), mean: unit not given here; settings: for Global BMD: 2000 ng/g body weight for 28 days, mean; for global 2 (BMD), mean / hindquart 2 (BMD), mean / spine 2 (BMD), mean / global 2 (BMD) / hindquart 2 (BMD) / spine 2 (BMD): 2000 ng/g for 28 days, end of experiment; for global 2 (BMD), mean / hindquart 2 (BMD), mean / spine 2 (BMD), mean / global 1 (BMD), mean / hindquart 1 (BMD), mean / spine 1 (BMD), mean: group mean; for global 2 (BMD) / hindquart 2 (BMD) / spine 2 (BMD) / global 1 (BMD) / hindquart 1 (BMD) / spine 1 (BMD): individual animals; for global 1 (BMD), mean / hindquart 1 (BMD), mean / spine 1 (BMD), mean / global 1 (BMD) / hindquart 1 (BMD) / spine 1 (BMD): 2000 ng/g group, day 0 initial measurement
# Method: In a representative experiment of this sort, six 4-5 month old female mice per group are screened twice for BMD in a four week period immediately prior to the initiation of the experiment to establish that peak adult bone mass has been attained. A subset of mice are then ovariectomized. Intact and ovariectomized mice are treated with vehicle, or 20, 200 or 2000 ng/g body weight estratriene-3-ol or another test compound.
# Stock solutions of the test agents (10,000 μg/ml) are maintained in approximately 2.0 ml of 95% ethanol. These stocks are diluted in 95% ethanol to make 1000 μg/ml and 100 μg/ml concentrations. The concentration of the stocks is checked spectrophotometrically. For each animal injection, the test agent is diluted in sesame oil and sonicated. Test agents are administered for 28 days by subcutaneous injections on alternative days. The mice are weighed weekly and serum samples are collected at appropriate times for analysis of bone biochemical markers, such as osteocalcin or collagen cross-links. Tetracycline labeling is performed by administration of the antibiotic (30 mg/kg) at 2 and 8 days prior to the end of each experiment.
# During the 28 day experiment, BMD is determined in live animals at day 0, 14 and 28. Following animal sacrifice at the end of the experiment, the vertebral bones L1-L4 are collected for fixation and embedded undecalcified in methylmethacrylate plastic for the determination of the prevalence of osteoblast and osteocyte apoptosis and other static and dynamic histomorphometric measurements. L5 vertebrae are isolated for determining anti-fracture efficacy of the compounds by assaying compression, 3 point bending and other appropriate biomechanical tests. Results confirming the expected efficacy of these compounds show decreased prevalence of osteoblast and/or osteocyte apoptosis, and/or positive BMD changes, and/or increased cancellous bone area, and/or increased rate of bone formation, and/or increased biomechanical strength.
# As an example, the results of an experiment whereby 2000 ng/g body weight of estratriene-3-ol was administered for 28 days to estrogen-replete (intact) or estrogen-deficient (ovariectomized) mice are shown in Table 2.
# Each row represents values for individual animals. The first three sets of numbers represent the initial BMD measurements (by dual-energy x-ray absorptiometry with Hologic QDR2000 plus, using customized software) at day 0 and the last three BMD measurements at the end of the experiment. Global=BMD of the entire skeleton minus the head and tail; hindquarters=the mean BMD of both hindlimbs; spine=the BMD of cervical, thoracic and lumbar spine.
# [2] = Ovx mice, t-test ovx vs 2000 ng/g 0.0001
smiles,measurement,setting,value
C[C@@]12CCC[C@H]1[C@@H]1CCc3cc(O)ccc3[C@H]1CC2 [estratriene-3-ol],Inhibition of etoposide-induced apoptosis of osteocytic cell line,"MLO-Y4 osteocytic cells; 1 h pretreatment before etoposide, trypan blue after 6 h",dose-dependently inhibited
same,"Antiapoptotic effect on osteocytes after ICI182,780","MLO-Y4 osteocytic cells; 1 h pretreatment with ICI182,780 10^−7 M",abrogated
same,Transactivation of an estrogen response element through the estrogen receptor α,human ERα,did not transactivate
same,Global BMD,"[1]; Ovx mice, p < 0.00001",0.0555 ± 0.0011 g/cm2
same,"global 2 (BMD), mean","[1]; Ovx mice, t-test ovx vs 2000 ng/g 0.0000",0.0555
same,"hindquart 2 (BMD), mean",[1]; [2],0.0618
same,"spine 2 (BMD), mean",[1]; [2],0.0599
same,global 2 (BMD),[1]; Ovx mice,0.0565 and 0.0557 and 0.0548 and 0.0545 and 0.0564 and 0.0568 and 0.0550 and 0.0539
same,hindquart 2 (BMD),[1]; Ovx mice,0.0602 and 0.0632 and 0.0599 (2×) and 0.0624 and 0.0598 and 0.0647 and 0.0630
same,spine 2 (BMD),[1]; Ovx mice,0.0608 and 0.0585 and 0.0584 and 0.0598 and 0.0610 and 0.0625 and 0.0578 and 0.0605
same,"global 1 (BMD), mean",[1]; Ovx mice,0.0534
same,"hindquart 1 (BMD), mean",[1]; Ovx mice,0.0573
same,"spine 1 (BMD), mean",[1]; Ovx mice,0.0579
same,global 1 (BMD),[1]; Ovx mice,0.0505 and 0.0542 and 0.0496 and 0.0540 and 0.0526 and 0.0569 and 0.0565 and 0.0528
same,hindquart 1 (BMD),[1]; Ovx mice,0.0527 and 0.0588 and 0.0504 and 0.0596 and 0.0547 and 0.0604 and 0.0591 and 0.0582
same,spine 1 (BMD),[1]; Ovx mice,0.0547 and 0.0581 and 0.0542 and 0.0586 and 0.0580 and 0.0628 and 0.0603 and 0.0568
same,Global BMD,"[1]; intact mice, p < 0.002",0.0554 ± 0.0015 g/cm2
same,"global 2 (BMD), mean","[1]; intact mice, t-test vehicle vs 2000 ng/g 0.0036",0.0554
same,"spine 2 (BMD), mean","[1]; intact mice, t-test vehicle vs 2000 ng/g 0.0037",0.0609
same,"hindquart 2 (BMD), mean","[1]; intact mice, t-test vehicle vs 2000 ng/g 0.0077",0.0605
same,global 2 (BMD),[1]; intact mice,0.0550 and 0.0543 and 0.0541 and 0.0568 (2×) and 0.0537 and 0.0574
same,hindquart 2 (BMD),[1]; intact mice,0.0585 and 0.0603 and 0.0619 and 0.0629 and 0.0640 and 0.0554 and 0.0605
same,spine 2 (BMD),[1]; intact mice,0.0602 and 0.0604 and 0.0601 and 0.0613 and 0.0620 and 0.0588 and 0.0632
same,"global 1 (BMD), mean",[1]; intact mice,0.0527
same,"hindquart 1 (BMD), mean",[1]; intact mice,0.0562
same,"spine 1 (BMD), mean",[1]; intact mice,0.0571
same,global 1 (BMD),[1]; intact mice,0.0486 and 0.0511 and 0.0543 and 0.0537 and 0.0533 and 0.0521 and 0.0560
same,hindquart 1 (BMD),[1]; intact mice,0.0509 and 0.0565 and 0.0605 and 0.0577 and 0.0546 and 0.0544 and 0.0587
same,spine 1 (BMD),[1]; intact mice,0.0511 and 0.0560 and 0.0593 and 0.0584 and 0.0571 and 0.0555 and 0.0623
